Experimental data published in patent US20080107661A1, “MUC1 and ABL” (Dana-Farber Cancer Institute, Inc., priority 2006, published 2008).

Key:
MUC1-C = test: Nuclear MUC1-C levels in HCT116/MUC1 cells after CDDP (immunoblot, densitometric scanning); type: cell-based, human; conditions: CDDP, 0, 1, 2 and 4 hours, over untreated cells
Procedure: Subcellular fractionation. Nuclear fractions were prepared as described (Kharbanda et al., (1996) Cancer Res. 56:3617-3621). Cytosolic fractions were prepared as described (Hill et al., (2004) EMBO J. 23:2134-2145). Cell membrane fractions were prepared with the Plasma Membrane Extraction Kit (BioVision Research Products, Mountain View, Calif.). Mitochondria were purified as described (Ren et al., (2004) Cancer Cell 5:163-175; Ren et al., (2006) Oncogene 25:20-31). Immunoprecipitations and immunoblot analysis. Cell lysates were prepared as described (Kharbanda et al., (1995) Nature 376:785-788); Yoshida et al., (2005) Nat. Cell Biol. 7:278-285). Soluble proteins were incubated with anti-MUC1-N (Kufe et al., (1984) Hybridoma 3:223-232), anti-MUC1-C (Ab5; Neomarker, Montreal, Quebec), anti-Flag (Sigma, St. Louis, Mo.), anti-c-Abl (Ab3; Oncogene, San Diego, Calif.) or anti-14-3-3 (Abcam Inc., Cambridge, Mass.) antibodies for 2 hours at 4° C., followed by precipitation with protein G-Sepharose beads for 1 hour. […] Intensity of the signals was determined by densitometric scanning. Statistical significance was determined by the Student's t-test.

MUC1 and c-Abl = test: Co-immunoprecipitation of c-Abl with MUC1 (anti-MUC1-N precipitates) after CDDP; type: cell-based, human; conditions: HCT116/MUC1 cells; CDDP, 1, 2 and 4 hours
Procedure: Immunoprecipitations and immunoblot analysis. Cell lysates were prepared as described (Kharbanda et al., (1995) Nature 376:785-788); Yoshida et al., (2005) Nat. Cell Biol. 7:278-285). Soluble proteins were incubated with anti-MUC1-N (Kufe et al., (1984) Hybridoma 3:223-232), anti-MUC1-C (Ab5; Neomarker, Montreal, Quebec), anti-Flag (Sigma, St. Louis, Mo.), anti-c-Abl (Ab3; Oncogene, San Diego, Calif.) or anti-14-3-3 (Abcam Inc., Cambridge, Mass.) antibodies for 2 hours at 4° C., followed by precipitation with protein G-Sepharose beads for 1 hour. Immune complexes and cell lysates (50 μg) were subjected to immunoblot analysis with anti-MUC1-N, anti-MUC1-C, anti-c-Abl (Calbiochem, San Diego, Calif.), anti-lamin B (Oncogene, San Diego, Calif.), anti-IκBα (Santa Cruz Biotechnology, Santa Cruz, Calif.), anti-GFP (BD Biosciences, San Jose, Calif.), anti-Flag (Sigma, St. Louis, […].), anti-β-actin (Sigma, St. Louis, Mo.), anti-phospho-c-Abl-[…] (Cell Signaling Technology), anti-14-3-3 (Santa Cruz Biotechnology, Santa Cruz, Calif.), anti-PKC5 (Santa Cruz Biotechnology), anti-HSP60 (BD Biosciences, San Jose, Calif.), anti-PCNA (Oncogene), or anti-calnexin (Stressgen, San Diego, Calif.) antibodies. […] Intensity of the signals was determined by densitometric scanning. Statistical significance was determined by the Student's t-test.

binding of MUC1 with c-Abl (MUC1 and c-Abl): increased binding of MUC1
Compound: [NH2][Pt]([NH2])([Cl])[Cl] [CDDP, cisplatin]
increase in nuclear MUC1-C levels (MUC1-C): two-fold
